Experimental data reported in the supplement of paper PMC10307832.

Legend:
Test in all cases: relative viability (nuclei count vs DMSO), 5 days (fraction); higher = more cells survive
Bleomycin + Lapatinib = compound: CC1=C(N=C(N=C1N)[C@H](CC(=O)N)NC[C@@H](C(=O)N)N)C(=O)N[C@@H]([C@H](C2=CN=CN2)OC3C(C(C(C(O3)CO)O)O)OC4C(C(C(C(O4)CO)O)OC(=O)N)O)C(=O)N[C@H](C)[C@H]([C@H](C)C(=O)N[C@@H]([C@@H](C)O)C(=O)NCCC5=NC(=CS5)C6=NC(=CS6)C(=O)NCCC[S+](C)C)O [Bleomycin] + CS(=O)(=O)CCNCc1ccc(-c2ccc3ncnc(Nc4ccc(OCc5cccc(F)c5)c(Cl)c4)c3c2)o1 [Lapatinib] (partner 2 µM); settings: main component drawn
In short: (§1)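 A single step with final 0.05% Triton X-100, 1% formaldehyde and 1 ug/ml Hoechst fixed the cells and stained nuclei 5 days after treatment. Lung cancer cell lines in 1536-well plates had been treated by pin tool the day after seeding with one drug alone or a fixed anchor-drug dose plus five library-drug doses (not always all listed) in √10 steps, and nuclei were counted on 4× images. Relative viability is the ratio of nuclei in treated wells to nuclei in vehicle wells, taken as the median of duplicate plates.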

Bleomycin + Navitoclax = compound: CC1=C(N=C(N=C1N)[C@H](CC(=O)N)NC[C@@H](C(=O)N)N)C(=O)N[C@@H]([C@H](C2=CN=CN2)OC3C(C(C(C(O3)CO)O)O)OC4C(C(C(C(O4)CO)O)OC(=O)N)O)C(=O)N[C@H](C)[C@H]([C@H](C)C(=O)N[C@@H]([C@@H](C)O)C(=O)NCCC5=NC(=CS5)C6=NC(=CS6)C(=O)NCCC[S+](C)C)O [Bleomycin] + CC1(C)CCC(c2ccc(Cl)cc2)=C(CN2CCN(c3ccc(C(=O)NS(=O)(=O)c4ccc(N[C@H](CCN5CCOCC5)CSc5ccccc5)c(S(=O)(=O)C(F)(F)F)c4)cc3)CC2)C1 [Navitoclax] (partner 0.5 µM); settings: main component drawn
In short: as §1

Etoposide + Dasatinib = compound: COc1cc([C@@H]2c3cc4c(cc3[C@@H](O[C@@H]3O[C@@H]5CO[C@@H](C)O[C@H]5[C@H](O)[C@H]3O)[C@H]3COC(=O)[C@H]23)OCO4)cc(OC)c1O [Etoposide] + Cc1nc(Nc2ncc(C(=O)Nc3c(C)cccc3Cl)s2)cc(N2CCN(CCO)CC2)n1 [Dasatinib] (partner 0.075 µM)
In short: as §1

Etoposide + Luminespib = compound: COc1cc([C@@H]2c3cc4c(cc3[C@@H](O[C@@H]3O[C@@H]5CO[C@@H](C)O[C@H]5[C@H](O)[C@H]3O)[C@H]3COC(=O)[C@H]23)OCO4)cc(OC)c1O [Etoposide] + CCNC(=O)c1noc(-c2cc(C(C)C)c(O)cc2O)c1-c1ccc(CN2CCOCC2)cc1 [Luminespib] (partner 0.01 µM)
In short: as §1

Cell Line	relative viability (Bleomycin + Lapatinib; first compound 0.01 µM)	relative viability (Bleomycin + Lapatinib; first compound 0.03162 µM)	relative viability (Bleomycin + Lapatinib; first compound 0.1 µM)	relative viability (Bleomycin + Lapatinib; first compound 0.3162 µM)	relative viability (Bleomycin + Lapatinib; first compound 1 µM)	relative viability (Bleomycin + Navitoclax; first compound 0.01 µM)	relative viability (Bleomycin + Navitoclax; first compound 0.03162 µM)	relative viability (Bleomycin + Navitoclax; first compound 0.1 µM)	relative viability (Bleomycin + Navitoclax; first compound 0.3162 µM)	relative viability (Bleomycin + Navitoclax; first compound 1 µM)	relative viability (Etoposide + Dasatinib; first compound 0.01 µM)	relative viability (Etoposide + Dasatinib; first compound 0.03162 µM)	relative viability (Etoposide + Dasatinib; first compound 0.1 µM)	relative viability (Etoposide + Dasatinib; first compound 0.3162 µM)	relative viability (Etoposide + Dasatinib; first compound 1 µM)	relative viability (Etoposide + Luminespib; first compound 0.01 µM)	relative viability (Etoposide + Luminespib; first compound 0.03162 µM)	relative viability (Etoposide + Luminespib; first compound 0.1 µM)	relative viability (Etoposide + Luminespib; first compound 0.3162 µM)	relative viability (Etoposide + Luminespib; first compound 1 µM)
LOU-NH91	0.679	0.609	0.51	0.361	0.298	0.553	0.437	0.362	0.266	0.199	0.579	0.601	0.492	0.566	0.395	0.318	0.38	0.306	0.311	0.284
NCI-H3122	0.931	0.996	0.842	0.654	0.528	1.08	1.03	0.96	0.79	0.547	0.749	0.775	0.112	0.817	0.223	0.072	0.0992	0.0664	0.116	0.076
LCLC-97TM1	0.264	0.288	0.151	0.168	0.093	0.191	0.197	0.102	0.152	0.1	0.858	0.943	0.933	0.681	0.179	0.788	0.78	0.465	0.175	0.154
NCI-H647	0.353	0.336	0.191	0.0899	0.0986	0.408	0.263	0.203	0.0968	0.0761	0.157	0.161	0.174	0.145	0.036	0.134	0.164	0.164	0.134	0.0949
NCI-H838	0.478	0.229	0.184	0.159	0.152	0.768	0.403	0.274	0.19	0.172	0.338	0.295	0.219	0.271	0.285	0.394	0.31	0.272	0.162	0.194
H3255	0.244	0.235	0.259	0.214	0.173	0.395	0.596	0.495	0.229	0.179	0.424	0.367	0.345	0.306	0.274	0.877	0.829	0.576	0.703	0.379
SK-MES-1	0.506	0.438	0.407	0.303	0.255	1.12	0.97	0.736	0.278	0.18	0.315	0.388	0.429	0.286	0.131	0.695	0.64	0.733	0.357	0.231
